What was measured:
DDR1 [1] = molecular target: T1, DDR1 (Homo sapiens (Human), UniProt Q08345); assay: DDR1 binding assay (LanthaScreen Europium Kinase Binding assay); conditions: potency class, read-out: Ki DDR1
How it was run: (§1)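 TR-FRET tracer displacement: compounds incubated 1 h at room temperature with 5 nM DDR1 (20 nM Tracer 178) or 5 nM DDR2 (10 nM Tracer 178), 2 nM Eu-anti-GST antibody, HEPES pH 7.5 buffer. 665/615 nm ratio read; IC50 from 4-parameter fit, converted to Ki by Cheng-Prusoff.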

DDR2 [2] = molecular target: T2, DDR2 (Homo sapiens (Human), UniProt Q16832); assay: DDR2 binding assay (LanthaScreen Europium Kinase Binding assay); conditions: potency class, read-out: Ki DDR2
T2 sequence (Q16832 22-855): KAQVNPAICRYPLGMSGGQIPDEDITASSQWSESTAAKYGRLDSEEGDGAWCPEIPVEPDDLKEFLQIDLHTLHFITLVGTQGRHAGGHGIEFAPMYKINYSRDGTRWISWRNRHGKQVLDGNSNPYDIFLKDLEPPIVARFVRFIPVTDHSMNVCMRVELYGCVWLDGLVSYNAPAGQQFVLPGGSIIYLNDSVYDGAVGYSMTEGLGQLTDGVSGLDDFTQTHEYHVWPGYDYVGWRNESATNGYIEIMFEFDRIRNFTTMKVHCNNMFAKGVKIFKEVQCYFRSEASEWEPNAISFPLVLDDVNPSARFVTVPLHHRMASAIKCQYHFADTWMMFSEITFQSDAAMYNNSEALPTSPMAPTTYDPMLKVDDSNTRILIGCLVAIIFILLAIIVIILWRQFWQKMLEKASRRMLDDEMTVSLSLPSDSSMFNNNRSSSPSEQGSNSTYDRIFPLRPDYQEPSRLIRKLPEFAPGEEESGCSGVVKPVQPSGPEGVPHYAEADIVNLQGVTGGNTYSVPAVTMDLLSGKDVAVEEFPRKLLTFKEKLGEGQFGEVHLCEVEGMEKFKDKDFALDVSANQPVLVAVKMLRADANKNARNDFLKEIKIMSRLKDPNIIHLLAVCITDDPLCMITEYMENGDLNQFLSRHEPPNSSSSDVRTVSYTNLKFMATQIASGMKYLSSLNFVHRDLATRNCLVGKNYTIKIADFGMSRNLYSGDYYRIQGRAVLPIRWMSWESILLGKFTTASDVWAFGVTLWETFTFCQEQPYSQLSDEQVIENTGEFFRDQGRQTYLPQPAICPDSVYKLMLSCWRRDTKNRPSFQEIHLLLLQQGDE
How it was run: as §1

DDR1 [3] = molecular target: T1, DDR1; assay: DDR1 cell based assay (PathHunter U2OS DDR1 assay); conditions: U2OS-DDR1 cells, Type II Collagen stimulation, potency class
How it was run: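 U2OS-DDR1 PathHunter cells preincubated 30 min with compound, then stimulated overnight at 37 °C with 20 μg/ml bovine type II collagen. Luminescent complementation signal read after 1 h detection at room temperature; normalized to vehicle (0%) and collagen-only (100%) controls, IC50 from variable-slope sigmoidal fit.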

DDR2 [4] = molecular target: T2, DDR2; assay: DDR2 cell based assay (phospho-ELISA in HEK293T-DDR2 recombinant cells); conditions: DDR2 phosphorylation, Type II Collagen stimulation, potency class, read-out: IC50DDR2
Procedure: The inhibition of DDR2 phosphorylation by compounds was evaluated in HEK293T-DDR2 recombinant cells by phospho-ELISA assay. Briefly, HEK293T-DDR2 cells were seeded in poly-D-lysine-coated 24-well plates at a density of 250,000 cells/well and incubated for 1.5 hours at 37° C. and 5% CO2 in DMEM+10% FBS. After that, the medium was changed to serum-free DMEM and cells were incubated for 3 hours. Then. test compounds were added at different concentrations 30 minutes before stimulation with bovine Type II Collagen at […] for further 3 hours. For DDR2 phospho-ELISA assay (DuoSet IC Human Phospho-DDR2; R&D Systems), protein extracts were obtained by adding 60 μl/well of lysis buffer prepared according to the manufacturer's instructions. Protein concentration in the samples was determined by BCA assay and the levels of phospho-DDR2 were determined following R&D Systems indications. Raw data were normalized to maximal inhibition control (0% for normalization) and positive control (100% for normalization; cells treated with 20 μg/ml collagen II) and IC50 parameters were calculated in GraphPad Prism 8.0 software, using sigmoidal dose-response curve fitting with variable slope.

T1 sequence (Q08345 19-913): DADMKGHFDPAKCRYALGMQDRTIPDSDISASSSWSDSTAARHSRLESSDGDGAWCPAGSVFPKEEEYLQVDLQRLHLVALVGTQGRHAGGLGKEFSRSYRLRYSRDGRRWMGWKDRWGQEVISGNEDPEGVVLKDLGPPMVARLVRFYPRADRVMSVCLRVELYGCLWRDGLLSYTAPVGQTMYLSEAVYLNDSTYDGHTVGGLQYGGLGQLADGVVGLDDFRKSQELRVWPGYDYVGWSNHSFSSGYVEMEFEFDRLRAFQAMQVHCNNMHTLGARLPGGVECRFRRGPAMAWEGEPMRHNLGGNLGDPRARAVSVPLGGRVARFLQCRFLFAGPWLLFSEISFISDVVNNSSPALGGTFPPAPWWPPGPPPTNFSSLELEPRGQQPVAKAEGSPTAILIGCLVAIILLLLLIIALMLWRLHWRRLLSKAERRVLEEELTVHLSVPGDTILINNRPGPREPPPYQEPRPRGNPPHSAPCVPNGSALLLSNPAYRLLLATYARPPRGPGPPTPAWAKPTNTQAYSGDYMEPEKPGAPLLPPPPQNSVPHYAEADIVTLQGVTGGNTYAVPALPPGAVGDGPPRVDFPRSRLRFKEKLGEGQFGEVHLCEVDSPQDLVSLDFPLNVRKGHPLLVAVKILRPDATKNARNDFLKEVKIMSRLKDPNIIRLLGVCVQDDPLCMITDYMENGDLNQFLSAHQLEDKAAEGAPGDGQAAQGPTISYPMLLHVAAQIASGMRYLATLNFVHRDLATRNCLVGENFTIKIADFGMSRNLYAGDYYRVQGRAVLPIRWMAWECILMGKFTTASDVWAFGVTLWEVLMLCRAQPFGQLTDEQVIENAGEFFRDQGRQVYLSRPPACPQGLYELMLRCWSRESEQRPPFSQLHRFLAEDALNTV

With `CC(=O)Nc1ncc(CN2CCc3c(C(=O)Nc4cc(F)cc(C(F)(F)F)c4)csc3C2)cn1` [Example 39, 6-((2-acetamidopyrimidin-5-yl)methyl)-N-(3-fluoro-5-(trifluoromethyl)phenyl)-4,5,6,7-tetrahydrothieno[2,3-c]pyridine-3-carboxamide] the Ki (DDR1 [1]) was under 25 nM, the Ki (DDR2 [2]) was under 25 nM and the IC50 (DDR1 [3]) was 25 to 50 nM. It also gave an IC50 (DDR2 [4]) of 25 to 50 nM.

With `CC(=O)Nc1ccc(CN2CCc3c(C(=O)Nc4cc(F)cc(C(F)(F)F)c4)csc3C2)cn1` [Example 42, 6-((6-acetamidopyridin-3-yl)methyl)-N-(3-fluoro-5-(trifluoromethyl)phenyl)-4,5,6,7-tetrahydrothieno[2,3-c]pyridine-3-carboxamide] the Ki (DDR1 [1]) was under 25 nM, the Ki (DDR2 [2]) was under 25 nM and the IC50 (DDR1 [3]) was under 25 nM. For the same compound, the IC50 (DDR2 [4]) was under 25 nM.

Work on `Nc1ncncc1CN1CCc2c(C(=O)Nc3cc(F)cc(C(F)(F)F)c3)csc2C1` [Example 45, 6-((4-aminopyrimidin-5-yl)methyl)-N-(3-fluoro-5-(trifluoromethyl)phenyl)-4,5,6,7-tetrahydrothieno[2,3-c]pyridine-3-carboxamide] yielded a Ki (DDR1 [1]) of under 25 nM, a Ki (DDR2 [2]) of under 25 nM and an IC50 (DDR1 [3]) of under 25 nM. For the same compound, the IC50 (DDR2 [4]) was under 25 nM.

`Nc1nccnc1CN1CCc2c(C(=O)Nc3cc(F)cc(C(F)(F)F)c3)csc2C1` [Example 46, 6-((3-aminopyrazin-2-yl)methyl)-N-(3-fluoro-5-(trifluoromethyl)phenyl)-4,5,6,7-tetrahydrothieno[2,3-c]pyridine-3-carboxamide] was tested, and the Ki (DDR1 [1]) was under 25 nM, the Ki (DDR2 [2]) was under 25 nM and the IC50 (DDR1 [3]) was under 25 nM. It also gave an IC50 (DDR2 [4]) of under 25 nM.

`CC(F)(F)c1cccc(NC(=O)c2csc3c2CCN(Cc2cnc(N)nc2)C3)c1` [Example 58, 6-((2-aminopyrimidin-5-yl)methyl)-N-(3-(1,1-difluoroethyl)phenyl)-4,5,6,7-tetrahydrothieno[2,3-c]pyridine-3-carboxamide] showed a Ki (DDR1 [1]) of under 25 nM, a Ki (DDR2 [2]) of under 25 nM and an IC50 (DDR1 [3]) of 25 to 50 nM. The IC50 (DDR2 [4]) was 25 to 50 nM.

Compound `Cn1nc(NC(=O)c2csc3c2CCN(Cc2cnc(N)nc2)C3)cc1C(C)(C)C` [Example 63, 6-((2-aminopyrimidin-5-yl)methyl)-N-(5-(tert-butyl)-1-methyl-1H-pyrazol-3-yl)-4,5,6,7-tetrahydrothieno[2,3-c]pyridine-3-carboxamide] has a Ki (DDR1 [1]) of under 25 nM, a Ki (DDR2 [2]) of under 25 nM and an IC50 (DDR1 [3]) of under 25 nM. The IC50 (DDR2 [4]) was under 25 nM.

Work on `CC(C)(C)c1cc(NC(=O)c2csc3c2CCN(Cc2cnc(N)nc2)C3)no1` [Example 64, 6-((2-aminopyrimidin-5-yl)methyl)-N-(5-(tert-butyl)isoxazol-3-yl)-4,5,6,7-tetrahydrothieno[2,3-c]pyridine-3-carboxamide] yielded a Ki (DDR1 [1]) of under 25 nM, a Ki (DDR2 [2]) of under 25 nM and an IC50 (DDR1 [3]) of under 25 nM. It also gave an IC50 (DDR2 [4]) of under 25 nM.
